Key:
human topoisomerase I = biological target: T1, human topoisomerase I (Homo sapiens, UniProt P11387); experiment: Test A. Topoisomerase I Cleavage Assay; assay type: biochemical; details: concentration relative to compound 5 (arbitrarily assumed as 1) producing the same cleavage on plasmid DNA with human topoisomerase I
T1 construct: unnamed fusion partner (recombinant fusion protein); made in house
T1 sequence (P11387 1-765): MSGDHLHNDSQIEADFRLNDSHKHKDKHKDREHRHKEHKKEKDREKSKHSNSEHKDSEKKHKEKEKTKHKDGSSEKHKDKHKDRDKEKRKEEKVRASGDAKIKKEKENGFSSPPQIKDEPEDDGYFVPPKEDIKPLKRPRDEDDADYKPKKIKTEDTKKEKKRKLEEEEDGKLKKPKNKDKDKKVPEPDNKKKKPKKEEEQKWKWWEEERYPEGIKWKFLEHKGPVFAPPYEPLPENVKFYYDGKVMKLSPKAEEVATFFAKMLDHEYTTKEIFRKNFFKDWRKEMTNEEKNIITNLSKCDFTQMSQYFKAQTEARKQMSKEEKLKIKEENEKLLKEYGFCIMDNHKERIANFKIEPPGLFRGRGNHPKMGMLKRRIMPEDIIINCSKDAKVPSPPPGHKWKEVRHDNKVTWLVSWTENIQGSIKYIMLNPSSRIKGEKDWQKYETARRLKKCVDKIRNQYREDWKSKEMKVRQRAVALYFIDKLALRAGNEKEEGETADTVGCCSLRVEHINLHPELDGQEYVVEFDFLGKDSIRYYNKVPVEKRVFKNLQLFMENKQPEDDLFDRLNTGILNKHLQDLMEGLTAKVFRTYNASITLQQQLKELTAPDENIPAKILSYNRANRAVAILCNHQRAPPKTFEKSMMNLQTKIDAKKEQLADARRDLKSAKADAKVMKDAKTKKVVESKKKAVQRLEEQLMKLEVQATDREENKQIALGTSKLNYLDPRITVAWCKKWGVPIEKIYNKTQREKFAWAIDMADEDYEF
Description: Test A. Topoisomerase I Cleavage Assay
Representative compounds of the invention were evaluated in a cleavage assay using recombinant topoisomerases I. This assay was preformed as described by B. Gatto et al. Cancer Res., 1996, 56, 2795–2800. Human topoisomerase I was isolated as a recombinant fusion protein using a T7 expression system. Plasmid YEpG was purified by the alkali lysis method followed by phenol deproteination and CsCl/ethidium isopycnic centrifugation as described by Maniatis, T.; Fritsch, E. F.; Sambrook, J. Molecular Cloning, a Laboratory Manual; Cold Spring Harbor Laboratory: Cold Spring Harbor, N.Y. 1982; pp 149–185. The end-labeling of the plasmid was accomplished by digestion with a restriction enzyme followed by end-filling with Klenow polymerase as previously described by Liu, L. F.; Rowe, T. C.; Yang, L.; Tewey, K. M.; Chen, G. L. “Cleavage of DNA by mammalian topoisomerase II,” J. Biol. Chem. 1983, 258, 15365. IC50 values were calculated after 4 days of continuous drug exposure. Topoisomerase I cleavage values are reported as REC, Relative Effective Concentration (i.e., concentrations relative to compound 5, whose value is arbitrarily assumed as 1) that is able to produce the same cleavage on the plasmid DNA in the presence of human topoisomerase I.

[1] = system: CPT-K5 (camptothecin-resistant variant of RPMI 8402); experiment: Test B. MTT cytotoxicity assay (MTA), CPT-K5; assay type: cell-based, human; details: continuous drug exposure, MTT at end of fourth day
Description: (§1) Test B. Cytotoxicity Assay
(§2) Cytotoxicity was determined using the MTT-microtiter plate tetrazolinium cytotoxicity assay (MTA) (See Chen A. Y. et al. Cancer Res. 1993, 53, 1332; Mosmann, T. J., J. Immunol. Methods 1983, 65, 55; and Carmichael, J. et al. Cancer Res. 1987, 47, 936). The human lymphoblast RPMI 8402 and its camptothecin-resistant variant cell line, CPT-K5 were provided by Dr. Toshiwo Andoh (Aichi Cancer Center Research Institute, Nagoya, Japan) (see Andoh, T.; Okada, K. “Drug resistance mechanisms of topoisomerase I drugs,” Adv. in Pharmacology 1994, 29B, 93. The cytotoxicity assay was performed using 96-well microtiter plates. Cells were grown in suspension at 37° C. in 5% CO2 and maintained by regular passage in RPMI medium supplemented with 10% heat-inactivated fetal bovine serum, L-glutamine (2 mM), penicillin (100 U/mL), and streptomycin (0.1 mg/mL). For determination of IC50, cells were exposed continuously with varying concentrations of drug and MTT assays were performed at the end of the fourth day.

RPMI 8402 cells = experiment: Test B. MTT cytotoxicity assay (MTA), RPMI 8402; assay type: cell-based; details: RPMI 8402 human lymphoblast; continuous drug exposure, MTT at end of fourth day
Description: as §1, §2

Structure (SMILES)	Topo I-mediated DNA cleavage (REC, Relative Effective Concentration) (human topoisomerase I)	IC50 [1] [nM]	IC50 (RPMI 8402 cells) [nM]
c1ccc(-c2ccc3[nH]c(-c4ccc5[nH]c(-c6ccc7[nH]nnc7c6)nc5c4)nc3c2)cc1 [Compound 2, 5-Phenyl-2′-(benzotriazol-5-yl)-bibenzimidazole]	1	470	470
c1ccc(-c2ccc3[nH]c(-c4ccc5[nH]c(-c6ccc7nccnc7c6)nc5c4)nc3c2)cc1 [Compound 3, 5-Phenyl-2′-(quinoxaline-6-yl)-bibenzimidazole]	1	21000	2300
O=c1[nH]c2ccc(-c3nc4cc(-c5nc6cc(-c7ccccc7)ccc6[nH]5)ccc4[nH]3)cc2[nH]c1=O [Compound 4, 5-Phenyl-2′-(quinoxalinedione-6-yl)bibenzimidazole]	–	> 20000	20000

From patent US6995154B2, “Heterocyclic topoisomerase poisons” (Rutgers, The State University of New Jersey, priority 1997, dated 2006)
